Experimental findings from article PMC8175350, “Drug repurposing screens identify chemical entities for the development of COVID-19 interventions” (Nature Communications, 2021) are described below.

A short description of data set [1]: Uninfected HeLa-ACE2 24 h live/dead cytotoxicity counter screen. It counts as cell-based, human. The note with it: human, uninfected HeLa-ACE2 cells. A general note: The purpose of a counterscreen is to sort out artefacts and off-target activity.
The test system of data set [2] is HeLa-ACE2 cells. Described as above. It counts as cell-based, human. Particulars: for HeLa-ACE2 uninfected cytotoxicity Sinf Average (%): Sinf average of the curves; for HeLa-ACE2 uninfected cytotoxicity Sinf Average: curve-fit effect at infinite concentration.
Data set [3] concerns SARS-CoV-2. The data set can be described thus: microbe, parasite or virus in culture. Type of data set: cell-based. The note with it: for Emax: Severe acute respiratory syndrome coronavirus 2, Calu-3, 48 h; for EC50: read-out: Calu-3 CoV-2 EC50 GeoMean.
The next data set is described as follows: in vitro. The note with it: human.
Data set [4] concerns SARS-CoV-2. Description: microbe, parasite or virus in culture. Type of data set: cell-based. The note with it: for EC50: Severe acute respiratory syndrome coronavirus 2, HeLa-ACE2, read-out: HeLa-ACE2 CoV-2 EC50 GeoMean; for Emax: Severe acute respiratory syndrome coronavirus 2, HeLa-ACE2, 24 h, curve-fit effect at infinite concentration, average, read-out: HeLa-ACE2 CoV-2 Sinf Average.

Data set [5] concerns HeLa-ACE2 cells. The data set can be described thus: cells. The note with it: Homo sapiens; for Emax: HeLa-ACE2, 24 h, read-out: HeLa-ACE2 cell count Sinf Average.
Data set [6] concerns Calu-3 cells. The data set can be described thus: Uninfected Calu-3 48 h Cell-Titer Glo cytotoxicity counter screen. The note with it: Sinf average of the curves.
For data set [7], the system named is Calu-3 cells. Description: cells. Particulars: Homo sapiens; for Emax: Calu-3, 48 h.
Data set [8] has as its system Calu-3 cells.
Setting [9] is: geometric mean of replicates, read-out: HeLa-ACE2 uninfected cytotoxicity CC50 GeoMean.
The mark [10] stands for this setting: Sinf average of the curves, read-out: Calu-3 CoV-2 Sinf Average (%).
Where [11] appears, read: Severe acute respiratory syndrome coronavirus 2, Calu-3, geometric mean of replicates.
Setting [12] is: HeLa-ACE2, read-out: HeLa-ACE2 cell count EC50 GeoMean (µM), geometric mean of replicates.
The mark [13] stands for this setting: read-out: Calu-3 cell count Sinf Average (%).
Where [14] appears, read: Calu-3, read-out: Calu-3 cell count EC50 GeoMean (µM), geometric mean of replicates.
Setting [15] is: uninfected cells, Fig. 2b group, read-out: HeLa-ACE2 CC50.
Setting [16] is: unrounded geometric mean, read-out: HeLa-ACE2 uninfected cytotoxicity CC50 GeoMean.
Setting [17] is: curve-fit effect at infinite concentration, average, read-out: Calu-3 CoV-2 Sinf Average.
Setting [18] is: Severe acute respiratory syndrome coronavirus 2, Calu-3, unrounded geometric mean.
Setting [19] is: Calu-3 uninfected cytotoxicity CC50 GeoMean, unrounded geometric mean.
Where [20] appears, read: HeLa-ACE2, read-out: HeLa-ACE2 cell count EC50 GeoMean, unrounded geometric mean.
The mark [21] stands for this setting: read-out: Calu-3 cell count Sinf Average.
Setting [22] is: Calu-3, read-out: Calu-3 cell count EC50 GeoMean, unrounded geometric mean.

Like-named read-outs stand apart in the source and are kept apart here.

As usually defined, the CC50 is the concentration giving 50% cytotoxicity. Broadly, the EC50 is the concentration at which the effect is half-maximal.

`CCOc1ccc(Cc2nc3cc(N(C)S(=O)(=O)c4cccs4)ccc3n2CC2CCCCC2)nc1` [AZ-11713908]: the CC50 at 24 h in [1] (setting [9]) is more than 33000 nM. In addition, in the data set on HeLa-ACE2 cells [2], the “HeLa-ACE2 uninfected cytotoxicity Sinf Average (%)” value is given as -100%. In addition, the Emax with SARS-CoV-2 [3] (setting [10]) came out at 93%; in the data set on Calu-3 cells [7] (setting [13]), 100%. For the same molecule, the EC50 in the data set with SARS-CoV-2 [3] (setting [11]) is 3530 nM; in the data set with SARS-CoV-2 [4] (geometric mean of replicates), more than 9590 nM; with HeLa-ACE2 cells [5] (setting [12]), more than 9.59 µM; in the data set on Calu-3 cells [7] (setting [14]), more than 9.73 µM. For the same molecule, the CC50 in the data set “in vitro” (Calu-3 uninfected cytotoxicity CC50 GeoMean (µM), geometric mean of replicates) was more than 29.9 µM. Besides, the “Calu-3 uninfected cytotoxicity Sinf Average (%)” value with Calu-3 cells [6] is reported as -95%.

For `CC[C@H]1CN2CCc3cc(OC)c(OC)cc3[C@@H]2C[C@@H]1C[C@H]1NCCc2cc(OC)c(OC)cc21` [Emetine], the CC50 at 24 h is not above 3000 nM in data set [1] (setting [15]) and 340 nM in data set [1] (setting [16]). The “HeLa-ACE2 uninfected cytotoxicity Sinf Average” value in the data set with HeLa-ACE2 cells [2] is listed as -99%. Moreover, the Emax with SARS-CoV-2 [3] (setting [17]) worked out at 100%; in the data set on SARS-CoV-2 [4] it was 100%; with HeLa-ACE2 cells [5] it was 98%; with Calu-3 cells [7] (setting [21]), 78%. Besides, the EC50 is 444 nM in the data set with SARS-CoV-2 [3] (setting [18]), 60.1 nM with SARS-CoV-2 [4] (unrounded geometric mean), 0.783 µM in the data set on HeLa-ACE2 cells [5] (setting [20]) and more than 3.56 µM in the data set with Calu-3 cells [7] (setting [22]). The CC50 in the data set “in vitro” (setting [19]) is more than 8.87 µM. Moreover, the “Calu-3 uninfected cytotoxicity Sinf Average” value in the data set on Calu-3 cells [8] (human) is -47%.

Turning to `C[C@@H]1C[C@@H]([C@H](O)CC2CC(=O)NC(=O)C2)C(=O)[C@@H](C)C1` [Cycloheximide], the 50% cytotoxic concentration (CC50) at 24 h in [1] (setting [15]) is not above 3000 nM; in data set [1] (setting [16]), 1470 nM. Besides, in the data set on HeLa-ACE2 cells [2], the “HeLa-ACE2 uninfected cytotoxicity Sinf Average” value is recorded as -80%. Besides, the Emax amounted to 98% in the data set with SARS-CoV-2 [3] (setting [17]), 101% with SARS-CoV-2 [4], 100% with HeLa-ACE2 cells [5] and 50% with Calu-3 cells [7] (setting [21]). Moreover, the EC50 in the data set with SARS-CoV-2 [3] (setting [18]) is 195 nM; in the data set on SARS-CoV-2 [4] (unrounded geometric mean), 634 nM; with HeLa-ACE2 cells [5] (setting [20]), more than 9.44 µM; with Calu-3 cells [7] (setting [22]), 0.268 µM. Moreover, the CC50 in “in vitro” (setting [19]) was more than 2.43 µM. Also, the “Calu-3 uninfected cytotoxicity Sinf Average” value in the data set on Calu-3 cells [8] (human) is -39%.

With `C[C@]12O[C@H](C[C@]1(O)CO)n1c3ccccc3c3c4c(c5c6ccccc6n2c5c31)CNC4=O` [Lestaurtinib], the CC50 at 24 h in data set [1] (setting [15]) was not above 3000 nM; in data set [1] (setting [16]) it was 758 nM. The “HeLa-ACE2 uninfected cytotoxicity Sinf Average” value in the data set on HeLa-ACE2 cells [2] is on record as -100%. Further, the Emax in the data set with SARS-CoV-2 [3] (setting [17]) came to 91%; in the data set on SARS-CoV-2 [4], 99%; in the data set on HeLa-ACE2 cells [5] it was 102%; in the data set with Calu-3 cells [7] (setting [21]) it was 100%. For the same molecule, the 50% effective concentration (EC50) with SARS-CoV-2 [3] (setting [18]) was 674 nM; with SARS-CoV-2 [4] (unrounded geometric mean), 546 nM; in the data set with HeLa-ACE2 cells [5] (setting [20]) it was 0.614 µM; with Calu-3 cells [7] (setting [22]), more than 4.71 µM. Further, in the data set “in vitro” (setting [19]), the CC50 was more than 20.1 µM. For the same molecule, the “Calu-3 uninfected cytotoxicity Sinf Average” value in the data set with Calu-3 cells [8] (human) is recorded as -98%.

Regarding `CCCCCCCC/C=C/CCCCCCCC(=O)OC[C@H]1O[C@@H](n2ccc(N)nc2=O)C(F)(F)[C@@H]1O` [Gemcitabine elaidate], the results for the CC50 at 24 h in data set [1] (setting [15]) and in data set [1] (setting [16]) were not above 3000 nM and less than 5.82 nM, respectively. Further, the “HeLa-ACE2 uninfected cytotoxicity Sinf Average” value in the data set with HeLa-ACE2 cells [2] is reported as -53%. Besides, the Emax in the data set with SARS-CoV-2 [3] (setting [17]) came out at 90%; in the data set with HeLa-ACE2 cells [5], 51%; in the data set on Calu-3 cells [7] (setting [21]), 48%. Besides, the EC50 in the data set with SARS-CoV-2 [3] (setting [18]) is 324 nM; with SARS-CoV-2 [4] (unrounded geometric mean), more than 9590 nM; in the data set with HeLa-ACE2 cells [5] (setting [20]), less than 0.0122 µM; in the data set on Calu-3 cells [7] (setting [22]), more than 3.7 µM. Besides, the CC50 at 48 h in the data set “in vitro” (Calu-3 uninfected cytotoxicity CC50 GeoMean) is more than 29.9 µM. Moreover, the “uninfected Calu-3 CC50” value in the data set on Calu-3 cells [8] is > 29.867 ×÷ 1 (n=3) μM. In addition, the “Calu-3 uninfected cytotoxicity Sinf Average” value in the data set on Calu-3 cells [8] (human, 48 h) is -100%.

As to `O=c1[nH]ccc2cc(OC3CCNCC3)ccc12` [SAR-407899], the half-maximal cytotoxic concentration (CC50) at 24 h in data set [1] (setting [9]) was more than 38700 nM. Further, in the data set on HeLa-ACE2 cells [2], the “HeLa-ACE2 uninfected cytotoxicity Sinf Average (%)” value was -100%. Besides, the values for the Emax with SARS-CoV-2 [3] (setting [10]) and in the data set with Calu-3 cells [7] (setting [13]) were 54% and 97%, respectively. In addition, the EC50 with SARS-CoV-2 [3] (setting [11]) was more than 3850 nM; with SARS-CoV-2 [4] (geometric mean of replicates) it was more than 9590 nM; with HeLa-ACE2 cells [5] (setting [12]), more than 9.59 µM; in the data set on Calu-3 cells [7] (setting [14]) it was 2.72 µM. The CC50 at 48 h in “in vitro” (Calu-3 uninfected cytotoxicity CC50 GeoMean (µM)) was more than 29.9 µM. In the data set on Calu-3 cells [8], the “uninfected Calu-3 CC50 [μM]” value is > 29.867 ×÷ 1 (n=3) μM. The “Calu-3 uninfected cytotoxicity Sinf Average (%)” value in the data set with Calu-3 cells [8] (human, 48 h) was 0%.
